Source: patent US8519096B2, “Citrullinated peptides for diagnosing and prognosing rheumatoid arthritis” (Nestec S.A., priority 2009, dated 2013)
Non-standard residues stand in square brackets, D forms with d. *: point of attachment. Biotin = O=C1N[C@H]2[C@H](CS[C@H]2CCCCC(=O)*)N1; Cit = NC(=O)NCCC[C@H](N)C(=O)O

Tested on: IgG ACPAs
Assay: ACPA ELISA with anti-human IgG secondary antibody
Format: binding
Conditions: Example 7, FIGS. 20-27
Experimental: The synthetic citrullnated peptides set forth in Example 6, which were designed from synovial proteins, were synthesized and evaluated for their ability to diagnose and/or prognose RA. […] The peptides were then tested for IgG ACPA dose-response in samples of synovial fluid taken from both healthy patients and patients with RA.

Substance | IgG ACPA positive response (strong/moderate)
FBNT-10: synthetic citrullinated peptide derived from fibronectin, Table 8 (Biotin-GGFR[Cit]TTPPTTF[Cit]RTTPPTTAR-NH2; SMILES C[C@H](NC(=O)[C@@H](NC(=O)[C@@H](NC(=O)[C@@H]1CCCN1C(=O)[C@@H]1CCCN1C(=O)[C@@H](NC(=O)[C@@H](NC(=O)[C@H](CCCNC(=N)N)NC(=O)[C@H](CCCNC(N)=O)NC(=O)[C@H](Cc1ccccc1)NC(=O)[C@@H](NC(=O)[C@@H](NC(=O)[C@@H]1CCCN1C(=O)[C@@H]1CCCN1C(=O)[C@@H](NC(=O)[C@@H](NC(=O)[C@H](CCCNC(N)=O)NC(=O)[C@H](CCCNC(=N)N)NC(=O)[C@H](Cc1ccccc1)NC(=O)CNC(=O)CNC(=O)CCCC[C@@H]1SC[C@@H]2NC(=O)N[C@@H]21)[C@@H](C)O)[C@@H](C)O)[C@@H](C)O)[C@@H](C)O)[C@@H](C)O)[C@@H](C)O)[C@@H](C)O)[C@@H](C)O)C(=O)N[C@@H](CCCNC(=N)N)C(N)=O) | moderate
FIB-A6: 25-mer citrullinated peptide: fibrinogen alpha chain amino acids 451-465 linked to 509-517, Cys461 to Ser (Biotin-GSGSTTTTR[Cit]SSSKTVFRH[Cit]HPDEA-NH2; SMILES CC(C)[C@H](NC(=O)[C@@H](NC(=O)[C@H](CCCCN)NC(=O)[C@H](CO)NC(=O)[C@H](CO)NC(=O)[C@H](CO)NC(=O)[C@H](CCCNC(N)=O)NC(=O)[C@H](CCCNC(=N)N)NC(=O)[C@@H](NC(=O)[C@@H](NC(=O)[C@@H](NC(=O)[C@@H](NC(=O)[C@H](CO)NC(=O)CNC(=O)[C@H](CO)NC(=O)CNC(=O)CCCC[C@@H]1SC[C@@H]2NC(=O)N[C@@H]21)[C@@H](C)O)[C@@H](C)O)[C@@H](C)O)[C@@H](C)O)[C@@H](C)O)C(=O)N[C@@H](Cc1ccccc1)C(=O)N[C@@H](CCCNC(=N)N)C(=O)N[C@@H](Cc1c[nH]cn1)C(=O)N[C@@H](CCCNC(N)=O)C(=O)N[C@@H](Cc1c[nH]cn1)C(=O)N1CCC[C@H]1C(=O)N[C@@H](CC(=O)O)C(=O)N[C@@H](CCC(=O)O)C(=O)N[C@@H](C)C(N)=O) | moderate
FIB-G1: synthetic citrullinated peptide derived from fibrin (gamma-chain), Table 8 (Biotin-GYVAT[Cit]DNSSILDE[Cit]FGSRILTHDSSI[Cit]YR-NH2; SMILES CC[C@H](C)[C@H](NC(=O)[C@H](CO)NC(=O)[C@H](CO)NC(=O)[C@H](CC(=O)O)NC(=O)[C@H](Cc1c[nH]cn1)NC(=O)[C@@H](NC(=O)[C@H](CC(C)C)NC(=O)[C@@H](NC(=O)[C@H](CCCNC(=N)N)NC(=O)[C@H](CO)NC(=O)CNC(=O)[C@H](Cc1ccccc1)NC(=O)[C@H](CCCNC(N)=O)NC(=O)[C@H](CCC(=O)O)NC(=O)[C@H](CC(=O)O)NC(=O)[C@H](CC(C)C)NC(=O)[C@@H](NC(=O)[C@H](CO)NC(=O)[C@H](CO)NC(=O)[C@H](CC(N)=O)NC(=O)[C@H](CC(=O)O)NC(=O)[C@H](CCCNC(N)=O)NC(=O)[C@@H](NC(=O)[C@H](C)NC(=O)[C@@H](NC(=O)[C@H](Cc1ccc(O)cc1)NC(=O)CNC(=O)CCCC[C@@H]1SC[C@@H]2NC(=O)N[C@@H]21)C(C)C)[C@@H](C)O)[C@@H](C)CC)[C@@H](C)CC)[C@@H](C)O)C(=O)N[C@@H](CCCNC(N)=O)C(=O)N[C@@H](Cc1ccc(O)cc1)C(=O)N[C@@H](CCCNC(=N)N)C(N)=O) | strong
H2A-1: synthetic citrullinated peptide derived from histone (H2A), Table 8 (Biotin-GLELAGNAA[Cit]DNKKTRIIP[Cit]HLQG-NH2; SMILES CC[C@H](C)[C@H](NC(=O)[C@H](CCCNC(=N)N)NC(=O)[C@@H](NC(=O)[C@H](CCCCN)NC(=O)[C@H](CCCCN)NC(=O)[C@H](CC(N)=O)NC(=O)[C@H](CC(=O)O)NC(=O)[C@H](CCCNC(N)=O)NC(=O)[C@H](C)NC(=O)[C@H](C)NC(=O)[C@H](CC(N)=O)NC(=O)CNC(=O)[C@H](C)NC(=O)[C@H](CC(C)C)NC(=O)[C@H](CCC(=O)O)NC(=O)[C@H](CC(C)C)NC(=O)CNC(=O)CCCC[C@@H]1SC[C@@H]2NC(=O)N[C@@H]21)[C@@H](C)O)C(=O)N[C@H](C(=O)N1CCC[C@H]1C(=O)N[C@@H](CCCNC(N)=O)C(=O)N[C@@H](Cc1c[nH]cn1)C(=O)N[C@@H](CC(C)C)C(=O)N[C@@H](CCC(N)=O)C(=O)NCC(N)=O)[C@@H](C)CC) | moderate
H2B-2: synthetic citrullinated peptide derived from histone (H2B), Table 8 (Biotin-SFVNDIFE[Cit]IAGEAS[Cit]LAHYNKRSTITS[Cit]EG-NH2; SMILES CC[C@H](C)[C@H](NC(=O)[C@H](CCCNC(N)=O)NC(=O)[C@H](CCC(=O)O)NC(=O)[C@H](Cc1ccccc1)NC(=O)[C@@H](NC(=O)[C@H](CC(=O)O)NC(=O)[C@H](CC(N)=O)NC(=O)[C@@H](NC(=O)[C@H](Cc1ccccc1)NC(=O)[C@H](CO)NC(=O)CCCC[C@@H]1SC[C@@H]2NC(=O)N[C@@H]21)C(C)C)[C@@H](C)CC)C(=O)N[C@@H](C)C(=O)NCC(=O)N[C@@H](CCC(=O)O)C(=O)N[C@@H](C)C(=O)N[C@@H](CO)C(=O)N[C@@H](CCCNC(N)=O)C(=O)N[C@@H](CC(C)C)C(=O)N[C@@H](C)C(=O)N[C@@H](Cc1c[nH]cn1)C(=O)N[C@@H](Cc1ccc(O)cc1)C(=O)N[C@@H](CC(N)=O)C(=O)N[C@@H](CCCCN)C(=O)N[C@@H](CCCNC(=N)N)C(=O)N[C@@H](CO)C(=O)N[C@H](C(=O)N[C@H](C(=O)N[C@H](C(=O)N[C@@H](CO)C(=O)N[C@@H](CCCNC(N)=O)C(=O)N[C@@H](CCC(=O)O)C(=O)NCC(N)=O)[C@@H](C)O)[C@@H](C)CC)[C@@H](C)O) | moderate
H2B-3: synthetic citrullinated peptide derived from histone (H2B), Table 8 (Biotin-SRLAHYNK[Cit]STITSREIQTAV[Cit]LG-NH2; SMILES CC[C@H](C)[C@H](NC(=O)[C@H](CCC(=O)O)NC(=O)[C@H](CCCNC(=N)N)NC(=O)[C@H](CO)NC(=O)[C@@H](NC(=O)[C@@H](NC(=O)[C@@H](NC(=O)[C@H](CO)NC(=O)[C@H](CCCNC(N)=O)NC(=O)[C@H](CCCCN)NC(=O)[C@H](CC(N)=O)NC(=O)[C@H](Cc1ccc(O)cc1)NC(=O)[C@H](Cc1c[nH]cn1)NC(=O)[C@H](C)NC(=O)[C@H](CC(C)C)NC(=O)[C@H](CCCNC(=N)N)NC(=O)[C@H](CO)NC(=O)CCCC[C@@H]1SC[C@@H]2NC(=O)N[C@@H]21)[C@@H](C)O)[C@@H](C)CC)[C@@H](C)O)C(=O)N[C@@H](CCC(N)=O)C(=O)N[C@H](C(=O)N[C@@H](C)C(=O)N[C@H](C(=O)N[C@@H](CCCNC(N)=O)C(=O)N[C@@H](CC(C)C)C(=O)NCC(N)=O)C(C)C)[C@@H](C)O) | strong
H3-2: synthetic citrullinated peptide derived from histone (H3), Table 8 (Biotin-DFKTDL[Cit]FQSSAVMARRIRGE[Cit]AG-NH2; SMILES CC[C@H](C)[C@H](NC(=O)[C@H](CCCNC(=N)N)NC(=O)[C@H](CCCNC(=N)N)NC(=O)[C@H](C)NC(=O)[C@H](CCSC)NC(=O)[C@@H](NC(=O)[C@H](C)NC(=O)[C@H](CO)NC(=O)[C@H](CO)NC(=O)[C@H](CCC(N)=O)NC(=O)[C@H](Cc1ccccc1)NC(=O)[C@H](CCCNC(N)=O)NC(=O)[C@H](CC(C)C)NC(=O)[C@H](CC(=O)O)NC(=O)[C@@H](NC(=O)[C@H](CCCCN)NC(=O)[C@H](Cc1ccccc1)NC(=O)[C@H](CC(=O)O)NC(=O)CCCC[C@@H]1SC[C@@H]2NC(=O)N[C@@H]21)[C@@H](C)O)C(C)C)C(=O)N[C@@H](CCCNC(=N)N)C(=O)NCC(=O)N[C@@H](CCC(=O)O)C(=O)N[C@@H](CCCNC(N)=O)C(=O)N[C@@H](C)C(=O)NCC(N)=O) | moderate
MLBS-1: synthetic citrullinated peptide derived from myeloblastin, Table 8 (Biotin-HS[Cit]PYMASLQM[Cit]GNPGSH-NH2; SMILES CSCC[C@H](NC(=O)[C@H](Cc1ccc(O)cc1)NC(=O)[C@@H]1CCCN1C(=O)[C@H](CCCNC(N)=O)NC(=O)[C@H](CO)NC(=O)[C@H](Cc1c[nH]cn1)NC(=O)CCCC[C@@H]1SC[C@@H]2NC(=O)N[C@@H]21)C(=O)N[C@@H](C)C(=O)N[C@@H](CO)C(=O)N[C@@H](CC(C)C)C(=O)N[C@@H](CCC(N)=O)C(=O)N[C@@H](CCSC)C(=O)N[C@@H](CCCNC(N)=O)C(=O)NCC(=O)N[C@@H](CC(N)=O)C(=O)N1CCC[C@H]1C(=O)NCC(=O)N[C@@H](CO)C(=O)N[C@@H](Cc1c[nH]cn1)C(N)=O) | moderate
PL-SCRB: synthetic citrullinated peptide derived from PL scramblase, Table 8 (Biotin-TL[Cit]IIDNMGQEVITLE[Cit]PLRSITLERPL[Cit]SS-NH2; SMILES CC[C@H](C)[C@H](NC(=O)[C@H](CO)NC(=O)[C@H](CCCNC(=N)N)NC(=O)[C@H](CC(C)C)NC(=O)[C@@H]1CCCN1C(=O)[C@H](CCCNC(N)=O)NC(=O)[C@H](CCC(=O)O)NC(=O)[C@H](CC(C)C)NC(=O)[C@@H](NC(=O)[C@@H](NC(=O)[C@@H](NC(=O)[C@H](CCC(=O)O)NC(=O)[C@H](CCC(N)=O)NC(=O)CNC(=O)[C@H](CCSC)NC(=O)[C@H](CC(N)=O)NC(=O)[C@H](CC(=O)O)NC(=O)[C@@H](NC(=O)[C@@H](NC(=O)[C@H](CCCNC(N)=O)NC(=O)[C@H](CC(C)C)NC(=O)[C@@H](NC(=O)CCCC[C@@H]1SC[C@@H]2NC(=O)N[C@@H]21)[C@@H](C)O)[C@@H](C)CC)[C@@H](C)CC)C(C)C)[C@@H](C)CC)[C@@H](C)O)C(=O)N[C@H](C(=O)N[C@@H](CC(C)C)C(=O)N[C@@H](CCC(=O)O)C(=O)N[C@@H](CCCNC(=N)N)C(=O)N1CCC[C@H]1C(=O)N[C@@H](CC(C)C)C(=O)N[C@@H](CCCNC(N)=O)C(=O)N[C@@H](CO)C(=O)N[C@@H](CO)C(N)=O)[C@@H](C)O) | moderate
